From patent publication US7112601B2, “Cycloalkyl heterocycles for treating hepatitis C virus” (priority 2003, dated 2006)

Biological target: T1, HCV NS5B RdRp (Hepatitis C virus genotype 1b, UniProt Q9WMX2)
T1 construct: The protein was expressed with an 18 amino acid C-terminal truncation to enhance the solubility; made in house; host or cells: E. coli BL21(DE3)
Assay: HCV NS5B RdRp enzyme inhibition assay
Type: biochemical
Protocol: HCV NS5B RdRp cloning, expression, and purification. The cDNA encoding the NS5B protein of HCV, genotype 1b, was cloned into the pET21a expression vector. The protein was expressed with an 18 amino acid C-terminal truncation to enhance the solubility. The E. coli competent cell line BL21(DE3) was used for expression of the protein. Cultures were grown at 37° C. for ˜4 hours until the cultures reached an optical density of 2.0 at 600 nm. The cultures were cooled to 20° C. and induced with 1 mM IPTG. Fresh ampicillin was added to a final concentration of 50 ug/ml and the cells were grown overnight at 20° C.
Cell pellets (3L) were lysed for purification to yield 15–24 mgs of purified NS5B. The lysis buffer consisted of 20 mM Tris-HCl, pH 7.4, 500 mM NaCl, 0.5% triton X-100, 1 mM DTT, 1 mM EDTA, 20% glycerol, 0.5 mg/ml lysozyme, 10 mM MgCl2, 15 ug/ml deoxyribonuclease I, and Complete TM protease inhibitor tablets (Roche). After addition of the lysis buffer, frozen cell pellets were resuspended using a tissue homogenizer. To reduce the viscosity of the sample, aliquots of the lysate were sonicated on ice using a microtip attached to a Branson sonicator. The sonicated lysate was centrifuged at 100,000×g for 1 hr at 4° C. and filtered through a 0.2 μm filter unit (Corning).
The protein was purified using three sequential chromatography steps: Heparin sepharose CL-6B, polyU sepharose 4B, and Hitrap SP sepharose (Pharmacia). The chromatography buffers were identical to the lysis buffer but contained no lysozyme, deoxyribonuclease I, MgCl2 or protease inhibitor and the NaCl concentration of the buffer was adjusted according to the requirements for charging the protein onto the column. Each column was eluted with a NaCl gradient which varied in length from 5–50 column volumes depending on the column type. After the final chromatography step, the resulting purity of the enzyme is >90% based on SDS-PAGE analysis. The enzyme was aliquoted and stored at −80° C.
HCV NS5B RdRp enzyme assay. HCV RdRp genotype 1b assays were run in assay buffer composed of 20 mM Tris-HCl, pH 7.5, 2.5 mM KCl, 5 mM MgCl2, 1 mM DTT, 1.6 U RNAse inhibitor (Promega N2515), in 96 well plates (Falcon 3918). All compounds were serially diluted in DMSO and diluted further in assay buffer such that the final concentration of DMSO in the assay was 2%. Compounds were serially diluted (3-fold each time) for a 7 point inhibition analysis. HCV RdRp genotype 1b enzyme was used at a final concentration of 28 nM. A polyA template was used at 28 nM, and the oligo-dT12-18 primer was used at 840 nM final concentration. Preannealed primer and template were obtained commercially (Amersham 27-787802). ^3H-UTP was used at 0.125 μCi (1 μM total UTP). Reaction was initiated by the addition of enzyme. Reactions were incubated at 30° C. for 45 min, and stopped by adding 30 ul of 20% ice cold TCA. Plates were chilled for 30 minutes and harvested onto Unifilter-96, GF/B plates (Packard, 6005177) using a Packard FilterMate Cell Harvester. The harvest plates were prewashed 3 times, 200 ul/well, with 100 mM NaPPi. Harvested filters were washed 30 times, 200 ul/well, with distilled water followed by ethanol. Filter plates were dried, and 30 ul/well microscint-20 was added. Plates were read on a Packard Top Count NXT.
The IC50 values for compounds were determined using […] different [I], combined with 7 nM enzyme, 800 ng of the template-primer polyC/oligoG12 (1:5 molar ratio), and 0.7 uM of ^3H GTP containing 1 uCi. The observed fractional activity (fa=vi/vo) was used in the equation IC50=[I]/(1/fa-1) to determine a single point IC50 value. Typically, the single point IC50 values derived from [I] that produced fractional activities in the range of 0.1 to 0.8 relative to the uninhibited control were averaged to calculate the IC50 value for each compound.

T1 sequence (Q9WMX2 2420-2992): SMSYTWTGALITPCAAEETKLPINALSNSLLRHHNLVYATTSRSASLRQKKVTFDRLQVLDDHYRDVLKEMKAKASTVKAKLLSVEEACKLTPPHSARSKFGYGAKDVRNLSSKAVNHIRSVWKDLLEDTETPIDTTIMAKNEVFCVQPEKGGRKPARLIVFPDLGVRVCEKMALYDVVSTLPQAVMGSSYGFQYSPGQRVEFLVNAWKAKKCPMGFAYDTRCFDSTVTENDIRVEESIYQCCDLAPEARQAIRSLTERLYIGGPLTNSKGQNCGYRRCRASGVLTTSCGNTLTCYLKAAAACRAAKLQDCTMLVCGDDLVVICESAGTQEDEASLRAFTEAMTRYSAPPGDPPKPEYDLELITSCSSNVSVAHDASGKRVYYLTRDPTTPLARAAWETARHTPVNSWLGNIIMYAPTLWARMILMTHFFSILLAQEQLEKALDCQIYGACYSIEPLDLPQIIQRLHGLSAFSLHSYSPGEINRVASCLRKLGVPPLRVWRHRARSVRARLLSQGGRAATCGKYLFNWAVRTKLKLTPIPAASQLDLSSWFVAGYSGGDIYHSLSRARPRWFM

| Compound | IC50 [µM] |
| --- | --- |
| COc1ccc(-c2ccc(Cl)cc2)c(COc2ccc(-c3cc(/C=C/C(=O)O)nn3C3CCCCC3)cc2)c1 [Example 5, (2E)-3-(5-{4-[(4′-chloro-4-methoxy-1,1′-biphenyl-2-yl)methoxy]phenyl}-1-cyclohexyl-1H-pyrazol-3-yl)-2-propenoic acid] | 0.45 |
| COC(=O)/C=C/c1nn(C2CCCCC2)c(-c2ccc(OCc3cc(OC)ccc3-c3ccc(Cl)cc3)cc2)c1-c1ccccc1 [Example 27] | > 25 |
| O=C(O)/C=C/c1cn(C2CCCCC2)c(-c2ccc(OCc3ccccc3)cc2)n1 [Example 45, (2E)-3-{2-[4-(benzyloxy)phenyl]-1-cyclohexyl-1H-imidazol-4-yl}-2-propenoic acid] | 6.6 |
| COC(=O)/C=C/c1cn(C2CCCCC2)c(-c2ccc(OCc3ccccc3)cc2)n1 [Example 46, Methyl (2E)-3-{2-[4-(benzyloxy)phenyl]-1-cyclohexyl-1H-imidazol-4-yl}-2-propenoate] | > 25 |
| CCOC(=O)/C(C)=C/c1cc(-c2ccc(OCc3cc(OC)ccc3-c3ccc(Cl)cc3)cc2)n(C2CCCCC2)n1 [Example 8, Ethyl (2E)-3-(5-{4-[(4′-chloro-4-methoxy-1,1′-biphenyl-2-yl)methoxy]phenyl}-1-cyclohexyl-1H-pyrazol-3-yl)-2-methyl-2-propenoate] | > 25 |
| COC(=O)/C=C/c1cc(C2CCCCC2)n(-c2ccc(OCc3ccccc3)cc2)n1 [Example 30, Methyl (2E)-3-{1-[4-(benzyloxy)phenyl]-5-cyclohexyl-1H-pyrazol-3-yl}-2-propenoate] | > 25 |
| CC(C)(C)OC(=O)/C=C/c1cn(C2CCCCC2)c(-c2ccc(OCc3ccccc3)cc2)n1 [Example 44, tert-butyl (2E)-3-{2-[4-(benzyloxy)phenyl]-1-cyclohexyl-1H-imidazol-4-yl}-2-propenoate] | > 25 |
| COC(=O)/C=C/c1cc(C2CCCCC2)n(-c2ccc(OCc3cc(OC)ccc3-c3ccc(Cl)cc3)cc2)n1 [Example 32, Methyl (2E)-3-(1-{4-[(4′-chloro-4-methoxy-1,1′-biphenyl-2-yl)methoxy]phenyl}-5-cyclohexyl-1H-pyrazol-3-yl)-2-propenoate] | > 25 |
| CNC(=O)c1ccc(-c2ccc(Cl)cc2)c(COc2ccc(-c3nc(/C=C(\C)C(=O)O)cn3C3CCCCC3)cc2)c1 [Example 54, (2E)-3-(2-{4-[(4′-chloro-4-N-methylcarbamoyl-1,1′-biphenyl-2-yl)methoxy]phenyl}-1-cyclohexyl-1H-imidazol-4-yl)-2-methyl-2-propenoic acid] | 1.6 |
| CCOC(=O)C#Cc1cc(-c2ccc(OCc3ccccc3)cc2)n(C2CCCCC2)n1 [Example 18, Ethyl 3-{5-[4-(benzyloxy)phenyl]-1-cyclohexyl-1H-pyrazol-3-yl}-2-propynoate] | > 25 |
| COc1ccc(-c2ccc(Cl)cc2)c(COc2ccc(-c3nc(/C=C(\C)C(=O)O)cn3C3CCCCC3)cc2)c1 [Example 52, (2E)-3-(2-{4-[(4′-chloro-4-methoxy-1,1′-biphenyl-2-yl)methoxy]phenyl}-1-cyclohexyl-1H-imidazol-4-yl)-2-methyl-2-propenoic acid] | 2.5 |
| O=C(O)/C=C/c1cc(C2CCCCC2)n(-c2ccc(OCc3ccccc3)cc2)n1 [Example 31, (2E)-3-{1-[4-(benzyloxy)phenyl]-5-cyclohexyl-1H-pyrazol-3-yl}-2-propenoic acid] | 4.5 |
| CCOC(=O)/C(C)=C/c1cc(-c2ccc(OCc3ccccc3)cc2)n(C2CCCCC2)n1 [Example 6, Ethyl (2E)-3-{5-[4-(benzyloxy)phenyl]-1-cyclohexyl-1H-pyrazol-3-yl}-2-methyl-2-propenoate] | > 25 |
| CCOC(=O)/C(C)=C/c1cc(-c2ccc(OCc3cc(C(=O)NC)ccc3-c3ccc(Cl)cc3)cc2)n(C2CCCCC2)n1 [Example 12, Ethyl (2E)-3-(5-{4-[(4′-Chloro-4-N-methylcarbamoyl-1,1′-biphenyl-2-yl)methoxy]phenyl}-1-cyclohexyl-1H-pyrazol-3-yl)-2-methyl-2-propenoate] | > 25 |
